Data reported in US3966793A (priority 1964, dated 1976).
Entries after “also recorded” stand apart in the source; their conditions may differ. Structures can show the parent of a compound that is named as a salt.

Tests used:
[1] = Reaction (pH) of aqueous solution; format: physicochemical
cat = assay: Morphine crisis (C); format: in vivo; conditions: Felis catus, SC, read-out: Morphine crisis, 50% effective dose
Excerpt: In the cat, morphine produces a specific state of excitation with hallucinations which can be attenuated or suppressed by certain psycholeptic drugs.

mice [2] = assay: Balance test: rotating rod (mice) (Equilibration); format: in vivo; conditions: Mus musculus, po, read-out: Equilibration, 50% effective dose
Excerpt: 2. Balance test: rotating rod (mice)
This test consists in observing whether the treated animals are capable of maintaining their balance on a horizontal rod kept in rotation.
Numerous neuroleptic compounds or tranquilizers disturb the equilibration reflex.

mice [3] = assay: Anti-convulsant activity (anti-pentetrazole) (mice); format: in vivo; conditions: mouse, PO; pentetrazole 125 mg./kg. IP; read-out: Anti-pentetrazole, 50% effective dose
Method: 3. Anti-convulsant activity (anti-pentetrazole) (mice)
Pentetrazole, injected intraperitoneally in a dose of 125 mg./kg. produces fatal convulsions in 100% of the animals.
Certain compounds exert a protective action preventing convulsions and permitting survival.

mice [4] = assay: Exploration test (mice); format: in vivo; conditions: Mus musculus, read-out: Exploration, 50% effective dose
Method: 5. Exploration test (mice)
This extremely simple test consists in placing a mouse at the center of a floor pierced with holes and in noting how many holes the mouse explores in 5 minutes. This test is carried out in a room in which complete silence is observed and which contains no person except the experimenter who is seated and still. It appeals to the curiosity of the animals. The doses of the compounds employed are, however, very small and considerably less than those required to impair movement. This simple test makes it possible to observe whether the compounds assayed produce a more or less pronounced lack of interest in the environment and it gives information which is interesting from the clinical point of view with regard to the treatment of anxiety and restlessness.

mice [5] = assay: Traction test (mice), myorelaxant activity; format: in vivo; conditions: Mus musculus, po, read-out: Traction, 50% effective dose
Excerpt: This consists in observing when the treated animals are capable of retrieving a rod grasped by the front paws only. Inability to carry this out was interpreted as a sign of myorelaxant activity.

male rat = assay: Combativeness (rat); format: in vivo; conditions: for ED50: rat, PO, read-out: Combativeness, 50% effective dose
Excerpt: It is possible to make a male rat aggressive towards another male rat enclosed in the same cage by passing an electric current of more or less high voltage through the floor of the cage.
This test, like the preceding one, can obviously give information of clinical value for the treatment of aggression diseases.

mice [6] = assay: Anti-convulsant activity (electric shock) (mice); format: in vivo; conditions: Mus musculus, po, read-out: Electric shock, 50% effective dose
Excerpt: 4. Anti-convulsant activity (electric shock) (mice)
The test consists in determining the intensity of the electric current required to produce a fatal shock in a batch of test animals.
Certain preventively administered compounds effectively protect a certain percentage of animals subjected to an electric current of an intensity which is fatal to untreated animals.

rat [7] = assay: Benzedrine provoked motor activity (R); format: in vivo; conditions: PO, read-out: Benzedrine provoked motor activity, 50% effective dose
Excerpt: (§1) 6. Spontaneous motor activity in the rat and mouse and provoked motor activity
(§2) The effect of drugs on voluntary movements of animals can be studied statistically by methods, the details of which will not be discussed here. The mouse, which is an extremely lively animal and moves about a great deal, is particularly suitable for this type of experiment.
(§3) Moreover, this spontaneous mobility can be exacerbated by preventive administration to the animals of certain substances such as benzedrine, mescaline and ritaline.
(§4) The experimental results obtained by these methods give valuable information for clinical purposes with regard to the treatment of ambulatory psychomotor crises.

Acute toxicity (M) LD 50 = conditions: in vivo, mouse
mouse [8] = assay: Spontaneous motor activity in the mouse; format: in vivo; conditions: Mus musculus, po, read-out: Spontaneous motor activity, 50% effective dose
Excerpt: as §1, §2

rat [9] = assay: Spontaneous motor activity in the rat; format: in vivo; conditions: Rattus norvegicus, po, read-out: Spontaneous motor activity, 50% effective dose
Excerpt: as §1, §2

mouse [10] = assay: Antistrychnine activity; format: in vivo; conditions: po, read-out: Anti-strychnine, 50% effective dose
Excerpt: 7. Antistrychnine activity

mouse [11] = assay: Morphine excitation (M); format: in vivo; conditions: PO, read-out: Morphine excitation, 50% effective dose
Excerpt: In the mouse, the action of morphine is different but also manifested by marked central excitation.

mouse [12] = assay: Potentiation of narcosis (M); format: in vivo; conditions: PO, read-out: Narcotic potentiation, 50% effective dose
Excerpt: 12. Potentiation of narcosis
Most psycholeptics are hypnotics in large doses, but many of them can, in small doses, without themselves producing any hypnosis, either prolong the time of sleep obtained with a true hypnotic (for example a barbiturate) or appreciably lower the dose of barbiturate required to obtain sleep.

cats = assay: Aggressiveness (cat/mouse); format: in vivo; conditions: Felis catus, SC, read-out: Aggressiveness, 50% effective dose
Excerpt: 9. Aggressiveness (cat/mouse)
In general, 75 to 80% of cats are aggressive when confronted with white mice. Psycholeptics and tranquilizers may make the cat indifferent and sometimes even amiable to the mouse. Similarly, in the case of cats that are furious and aggressive in relation to humans, diminution or suppression of the instinctive fear and establishment of a climate of confidence are observed.

mouse [13] = assay: Benzedrine provoked motor activity (M); format: in vivo; conditions: PO, read-out: Benzedrine provoked motor activity, 50% effective dose
Excerpt: as §1, §2, §3, §4

central nervous system = assay: Pharmacodynamic / central nervous system tests taken together; format: in vivo
Excerpt: A certain number of the compounds described in the present application have been studied with regard to their action on the central nervous system, as psycholeptics, myorrelaxants and tranquilizers. In addition, the acute toxicity has been determined for a number of these compounds.
It has thereby been possible to make quantitative comparisons of the activity of the different compounds for the different tests employed.

Row | Structure (SMILES) | Solubility in water (Solubility) | Reaction / pH of aqueous solution [1] | ED50 (mice [2]) [mg/kg] | ED50 (mice [3]) [mg/kg] | ED50 (mice [4]; po) [mg/kg] | ED50 (mice [5]) [mg/kg] | ED50 (mice [6]) [mg/kg] | ED50 (mouse [8]) [mg/kg] | also measured
1 | Nc1ccc2c(c1)C(c1ccccc1)=NC(C(=O)O)C(=O)N2.[K+].[K+].[OH-].[OH-] (stereo not drawn) [4371 CB, 7-Amino-2,3-dihydro-2-oxo-5-phenyl-1H-benzo[f]-1,4-diazepine-3-carboxylic acid, monopotassium salt, monopotassium hydroxide] | completely soluble in water | strongly alkaline reaction | – | – | – | – | – | – | –
2 | CNC1=Nc2ccc(Cl)cc2C(c2ccccc2)=[N+]([O-])C1 [Chlordiazepoxide, reference compound] | – | – | 13 | 5 | 20 | 3 | 17 | – | ED50 (cat): 100 mg/kg; ED50 (male rat): 100 mg/kg; ED50 (rat [7]): > 100 mg/kg; LD50 (Acute toxicity (M) LD 50; IP): 80 mg/kg; LD50 (Acute toxicity (M) LD 50; PO): 200 mg/kg
3 | O=C(O)C1N=C(c2ccccc2)c2cc(Cl)ccc2NC1=O (stereo not drawn) [4372 CB, 7-Chloro-2,3-dihydro-2-oxo-5-phenyl-1H-benzo[f]-1,4-diazepine-3-carboxylic acid, calcium salt] | sparingly soluble in water | – | – | – | – | – | – | – | –
4 | Cc1ccc2c(c1)C(c1ccccc1)=NC(C(=O)O)C(=O)N2.[K+].[K+].[OH-].[OH-] (stereo not drawn) [4339 CB, 7-Methyl-2,3-dihydro-2-oxo-5-phenyl-1H-benzo[f]-1,4-diazepine-3-carboxylic acid, monopotassium salt, monopotassium hydroxide] | completely soluble in water | – | > 10 | > 10 | – | > 10 | > 10 | 10 | –
5 | O=C(O)C1N=C(c2ccccc2)c2ccccc2NC1=O (stereo not drawn) [4338 CB, 3-[5-Phenyl-2-oxo-2,3-dihydro-1H-benzo[f]-1,4-diazepine]-carboxylic acid, potassium salt] | dissolves in water | substantially neutral reaction | > 10 | > 10 | – | 5 | > 10 | 10 | ED50 (mice [4]; route not given): > 10 mg/kg
6 | CCN(CC)CCNC(=O)C1N=C(c2ccccc2)c2cc(Cl)ccc2NC1=O (stereo not drawn) [4369 CB, 7-Chloro-3-(2-diethylamino-ethylaminocarbonyl)-5-phenyl-2-oxo-2,3-dihydro-1H-benzo[f]-1,4-diazepine] | – | – | > 50 | > 50 | > 20 | > 25 | > 20 | > 10 | –
7 | NC(=O)C(N=C(c1ccccc1)c1cc(Cl)ccc1N)C(=O)O (stereo not drawn) [4349 CB, Potassium salt of 4-phenyl-4-(2-amino-5-chlorophenyl)-2-carbamoyl-3-aza-3-butenoic acid] | completely soluble in water | – | > 10 | > 10 | 10 | 10 | > 10 | 10 | –
8 | CN1C(=O)C(C(=O)O)N=C(c2ccccc2)c2cc(Cl)ccc21.[K+].[K+].[OH-].[OH-] (stereo not drawn) [4350 CB, 7-Chloro-1-methyl-2,3-dihydro-2-oxo-5-phenyl-1H-benzo[f]-1,4-diazepine-3-carboxylic acid, monopotassium salt, monopotassium hydroxide] | very soluble in water; also recorded: completely soluble in water | strongly alkaline in reaction | > 10 | 7.5 | 10 | 5 | 20 | > 20 | –
9 | O=C(O)C1N=C(c2ccccc2)c2ccccc2NC1=O.[K+].[K+].[OH-].[OH-] (stereo not drawn) [4337 CB, 2,3-Dihydro-2-oxo-5-phenyl-1H-benzo[f]-1,4-diazepine-3-carboxylic acid, monopotassium salt, monopotassium hydroxide] | completely soluble in water | strongly alkaline in reaction | > 10 | > 10 | > 10 | 5 | > 10 | – | –
10 | CCOC(=O)C1N=C(c2ccccc2)c2cc(Cl)ccc2NC1=O (stereo not drawn) [4279 CB, 7-Chloro-3-carbethoxy-5-phenyl-2-oxo-2,3-dihydro-1H-benzo[f]-1,4-diazepine] | – | – | 50 | 10 | 25 | 8 | 25 | 100 | ED50 (rat [9]): 100 mg/kg; ED50 (rat [7]): > 100 mg/kg
11 | CN1C(=O)CN=C(c2ccccc2)c2cc(Cl)ccc21 [Diazepame, 7-Chloro-1-methyl-5-phenyl-2-oxo-2,3-dihydro-1H-benzo[f]-1,4-diazepine, reference compound] | – | – | 4.4 | 1.7 | 6 | 1.6 | 5 | 5 | ED50 (cat): 25 mg/kg; ED50 (mouse [10]): > 50 mg/kg; ED50 (rat [9]): 25 mg/kg; ED50 (mouse [11]): 25 mg/kg; ED50 (mouse [12]): 2.5 mg/kg; ED50 (male rat): 25 mg/kg; ED50 (cats): 25 mg/kg; ED50 (rat [7]): 100 mg/kg; ED50 (mouse [13]): > 20 mg/kg
12 | Cc1ccc2c(c1)C(c1ccccc1)=NC(C(=O)O)C(=O)N2 (stereo not drawn) [4373 CB, 3-[7-methyl-5-phenyl-2-oxo-2,3-dihydro-1H-benzo[f]-1,4-diazepine]-carboxylic acid, potassium salt] | completely soluble in water | – | – | – | – | – | – | – | –
13 | O=C(O)C1N=C(c2ccccc2)c2cc([N+](=O)[O-])ccc2NC1=O (stereo not drawn) [4336 CB, 3-[7-nitro-5-phenyl-2-oxo-2,3-dihydro-1H-benzo[f]-1,4-diazepine]-carboxylicacid, potassium salt] | dissolves in water | practically neutral solution | 1.5 | 0.31 | 6 | 0.28 | 3 | 5 | ED50 (cat): 25 mg/kg; ED50 (mouse [10]): 25 mg/kg; ED50 (rat [9]): 50 mg/kg; ED50 (male rat): 10 mg/kg; Effect in diminishing aggressiveness (male rat; test for combativeness): marked effect in diminishing aggressiveness; ED50 (cats): 25 mg/kg; Activity in different tests, especially as myorelaxants and anticonvulsants (central nervous system; different tests of Table VI): extremely active in different tests; Effect on the faculties of displacement (central nervous system; in vivo): less effect on the faculties of displacement; LD50 (Acute toxicity (M) LD 50; PO): 800 mg/kg
